Measurements as given in PMC11642994, “AGC family kinase of Entamoeba histolytica: Decoding the members biochemically” (PLOS Pathogens, 2024).
No end group written: not given here.

Experiments:
Type in all cases: binding
KDD2 = target: T1, KDD2 (Entamoeba histolytica, UniProt C4M3C2, D242A/K147A); experiment: Microscale Thermophoresis (MST), kinase-dead EhAGCK2 (KDD2); settings: KDD2 (K147A and D242A), Tris-Cl pH 8, 25°C, peptide 500 μM to 153 nM, n = 6
T1 sequence (C4M3C2 1-434 K147A/D242A): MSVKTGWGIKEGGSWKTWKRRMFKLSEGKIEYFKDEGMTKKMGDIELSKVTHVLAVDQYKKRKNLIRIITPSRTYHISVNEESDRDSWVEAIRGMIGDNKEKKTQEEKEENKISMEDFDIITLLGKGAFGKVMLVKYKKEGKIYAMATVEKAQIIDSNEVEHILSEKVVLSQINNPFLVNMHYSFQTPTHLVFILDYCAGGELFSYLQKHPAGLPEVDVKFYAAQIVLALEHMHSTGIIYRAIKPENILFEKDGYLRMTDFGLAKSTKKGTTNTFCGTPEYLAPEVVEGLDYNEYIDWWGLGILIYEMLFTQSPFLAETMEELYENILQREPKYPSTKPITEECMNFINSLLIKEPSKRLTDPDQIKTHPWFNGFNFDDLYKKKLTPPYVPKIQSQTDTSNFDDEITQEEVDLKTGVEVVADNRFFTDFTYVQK
Description: (§1) Microscale Thermophoresis (MST) was performed in the presence of full-length and kinase-dead EhAGCK1 and EhAGCK2 proteins, along with HsGSK3, EhRhoGEF, and EhCoactosin peptide substrates. Proteins were labelled using a His-tag labelling kit, RED-tris-NTA 2nd Generation (Nano Temper Technologies, San Francisco, CA, USA). A brief labelling reaction was performed in a buffer containing (50 mM Tris-Cl pH 8, 150 mM NaCl, 1 mM β-ME and 5% glycerol) with a protein concentration of 20 nM and a molar dye: protein ratio of approximately 3:1. The mixture was kept at room temperature for 30 min, followed by centrifugation at 15000 g for 10 min at 4°C. A series of 16 1:1 dilutions were prepared using the same buffer, resulting in peptide concentrations ranging from 500 μM to […]. Following a 10 min incubation, the samples were loaded into standard monolith NT.115 capillaries from Nano Temper Technologies. […] Data from three independently pipetted measurements were analysed using MO. […]
(§2) The kinase assay data presented here are the mean ± standard error (SE) of n≥3 of three independent experiments. The Km and Vmax were determined from a direct, nonlinear fit of [V] versus [S] plots using the Michaelis-Menten equation: V=Vmax[S]/Km+[S] using the GraphPad Prism 9.0 software package (GraphPad Software Inc., CA, USA). […]

EhAGCK1 WT = EhAGCK1 WT (Entamoeba histolytica, UniProt C4M2W0); experiment: Microscale Thermophoresis (MST), EhAGCK1 WT; settings: MST, EhAGCK1
Description: as §1, §2

KDD1 = target: T2, KDD1 (Entamoeba histolytica, UniProt C4M2W0, D241A/K147A); experiment: Microscale Thermophoresis (MST), kinase-dead EhAGCK1 (KDD1); settings: KDD1 (K147A and D241A), Tris-Cl pH 8, 25°C, peptide 500 μM to 153 nM, n = 6
T2 sequence (C4M2W0 1-433 K147A/D241A): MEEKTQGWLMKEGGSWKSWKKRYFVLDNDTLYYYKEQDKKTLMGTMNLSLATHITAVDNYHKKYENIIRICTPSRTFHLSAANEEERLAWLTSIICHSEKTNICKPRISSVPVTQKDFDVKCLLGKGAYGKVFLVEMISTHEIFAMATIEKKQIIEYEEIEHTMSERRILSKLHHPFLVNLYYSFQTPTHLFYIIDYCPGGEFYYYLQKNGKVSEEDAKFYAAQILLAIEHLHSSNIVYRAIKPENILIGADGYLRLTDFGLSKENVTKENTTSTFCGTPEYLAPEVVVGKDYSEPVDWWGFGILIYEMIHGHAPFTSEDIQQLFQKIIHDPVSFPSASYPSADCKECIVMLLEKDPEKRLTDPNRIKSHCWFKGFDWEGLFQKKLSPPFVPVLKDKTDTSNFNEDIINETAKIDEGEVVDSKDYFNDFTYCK
Description: as §1, §2

KAGGADYSFNTTSN [Coactosin]
Kd (KDD2): 11.9 µM

SSPSSVPAAQSTTPVNVPK [RhoGEF]
KD range in words (EhAGCK1 WT): within the nanomolar range | Kd (KDD1): 11.9 µM
